Assay [1] concerns the target T1, AHR (Homo sapiens, UniProt P35869).
T1 construct: U87 MG glioblastoma cells (ATCC #HTB-14) endogenously expressing AHR; endogenous in cells; host or cells: U87 MG glioblastoma cells (ATCC #HTB-14)
T1 sequence (P35869 11-848): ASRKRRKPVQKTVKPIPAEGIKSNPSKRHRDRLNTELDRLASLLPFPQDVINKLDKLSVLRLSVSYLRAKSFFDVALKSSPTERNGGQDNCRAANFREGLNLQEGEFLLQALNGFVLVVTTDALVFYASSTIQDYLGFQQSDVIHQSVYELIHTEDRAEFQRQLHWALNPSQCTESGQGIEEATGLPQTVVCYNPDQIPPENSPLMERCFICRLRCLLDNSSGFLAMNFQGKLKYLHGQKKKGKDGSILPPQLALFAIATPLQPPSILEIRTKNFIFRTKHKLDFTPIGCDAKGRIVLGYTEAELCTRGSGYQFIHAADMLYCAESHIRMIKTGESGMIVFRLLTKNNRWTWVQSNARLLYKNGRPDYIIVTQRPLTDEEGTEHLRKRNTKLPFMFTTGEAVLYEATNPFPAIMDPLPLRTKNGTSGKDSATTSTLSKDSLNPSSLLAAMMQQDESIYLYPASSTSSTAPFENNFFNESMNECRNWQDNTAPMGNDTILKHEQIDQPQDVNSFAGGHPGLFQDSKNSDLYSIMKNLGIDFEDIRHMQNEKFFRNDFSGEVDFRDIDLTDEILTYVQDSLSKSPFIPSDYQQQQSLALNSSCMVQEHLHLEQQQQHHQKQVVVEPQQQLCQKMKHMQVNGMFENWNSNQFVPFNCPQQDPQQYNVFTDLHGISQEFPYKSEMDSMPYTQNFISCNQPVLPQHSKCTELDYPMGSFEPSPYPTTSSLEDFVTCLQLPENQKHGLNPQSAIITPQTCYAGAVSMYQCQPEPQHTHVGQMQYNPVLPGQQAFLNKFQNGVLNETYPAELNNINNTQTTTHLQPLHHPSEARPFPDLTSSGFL
The assay can be described thus: In vitro assay 1: antagonism in human cell line (AHR transactivation, firefly luciferase reporter, kynurenic acid prestimulated). The class given is cell-based. Conditions: AHR Antagonism Human IC50 [M]. An outline of the steps:
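U87 MG + DRE-firefly/constitutive-Renilla stable reporters; kynurenic acid prestim; dual-luc read; Renilla = tox; normalized vs pos/neg controls (pos: 150 μM KYNA + 5 μM staurosporine).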
On the technique in general: In a reporter assay the amount or activity of a reporter protein is the signal.

Assay [2] addresses T2, AHR (Mus musculus, UniProt P30561).
T2 sequence (P30561 1-848 P471L/N533S/M589L): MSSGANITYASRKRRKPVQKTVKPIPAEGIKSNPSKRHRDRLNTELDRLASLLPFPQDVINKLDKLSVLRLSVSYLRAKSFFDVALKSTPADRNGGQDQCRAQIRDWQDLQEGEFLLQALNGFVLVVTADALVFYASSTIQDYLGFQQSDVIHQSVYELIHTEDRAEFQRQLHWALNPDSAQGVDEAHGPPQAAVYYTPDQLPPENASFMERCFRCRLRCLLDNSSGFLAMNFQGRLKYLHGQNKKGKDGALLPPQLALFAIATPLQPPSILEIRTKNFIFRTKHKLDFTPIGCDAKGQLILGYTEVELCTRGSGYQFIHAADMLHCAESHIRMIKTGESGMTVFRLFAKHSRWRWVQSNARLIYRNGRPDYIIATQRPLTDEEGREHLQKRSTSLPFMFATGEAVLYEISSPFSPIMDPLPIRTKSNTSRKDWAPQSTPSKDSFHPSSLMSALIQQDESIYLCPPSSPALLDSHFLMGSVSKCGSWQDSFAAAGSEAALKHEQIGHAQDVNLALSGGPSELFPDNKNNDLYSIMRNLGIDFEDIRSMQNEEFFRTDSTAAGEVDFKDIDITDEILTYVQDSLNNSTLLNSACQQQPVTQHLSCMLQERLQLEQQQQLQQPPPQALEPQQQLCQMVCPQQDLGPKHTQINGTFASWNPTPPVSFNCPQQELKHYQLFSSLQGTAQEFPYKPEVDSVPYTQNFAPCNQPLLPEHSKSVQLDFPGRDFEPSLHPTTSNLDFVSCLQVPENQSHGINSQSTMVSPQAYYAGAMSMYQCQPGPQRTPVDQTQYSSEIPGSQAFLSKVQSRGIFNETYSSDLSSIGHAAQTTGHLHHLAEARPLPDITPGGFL
The assay can be described thus: In vitro assay 3: antagonism in mouse cell line (AHR transactivation, firefly luciferase reporter, kynurenic acid prestimulated). The class given is cell-based. An outline of the steps:
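Cells were first stimulated with kynurenic acid, then exposed to test compound, after which firefly luciferase from a DRE-containing AHR reporter was read out. Signal was scaled between positive and negative controls. Cells not given kynurenic acid provided the inhibition reference.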

[3] abbreviates: mouse Hepa 1c1c7 cells, 200 μM kynurenic acid, 20 hours, read-out: AHR Antagonism Mouse IC50.
The mark [4] stands for this setting: Hepa 1c1c7 cells, 200 μM kynurenic acid, 20 hours, firefly luciferase reporter, read-out: AHR Antagonism Mouse IC50.
Where [5] appears, read: read-out: AHR Antagonism Mouse IC50, Hepa 1c1c7 cells, 200 μM kynurenic acid, 20 hours, firefly luciferase reporter.

Read-outs that look alike come from different tables or passages of the source.

This note sets out measurements from patent US20230113037A1 (Bayer Aktiengesellschaft, priority 2019, published 2023).

What is called IC50 is the midpoint of a concentration-inhibition curve.

With `CCn1cc(-c2nc3c4cccc(OC)c4nc(N[C@@H]4CCCCNC4=O)n3n2)c(C)n1` [Example 753, (3R)-3-{[2-(1-ethyl-3-methyl-1H-pyrazol-4-yl)-7-methoxy[1,2,4]triazolo[1,5-c]quinazolin-5-yl]amino}azepan-2-one], the IC50 against AHR [1] came out at 9.89e-09 M; on AHR [2] (setting [3]), 40.6 nM.
With `O=C1NCCC[C@H]1Nc1nc2ccccc2c2nc(-c3cccc(OC(F)(F)F)c3)nn12` [Example 311, (3R)-3-({2-[3-(trifluoromethoxy)phenyl][1,2,4]triazolo[1,5-c]quinazolin-5-yl}amino)piperidin-2-one], the figures for the IC50 against AHR [1] and at AHR [2] (setting [3]) were 1.36e-07 M and 111 nM, respectively.
`COc1ccc(-c2nc3c4cccc(Br)c4nc(N[C@H](C)C(=O)N4C[C@@H]5C[C@H]4CO5)n3n2)cc1` [Example 914, (2R)-2-{[7-bromo-2-(4-methoxyphenyl)[1,2,4]triazolo[1,5-c]quinazolin-5-yl]amino}-1-[(1S,4S)-2-oxa-5-azabicyclo[2.2.1]heptan-5-yl]propan-1-one]: the IC50 against AHR [1] (firefly luciferase reporter) was found to be 8.96e-10 M; at AHR [2] (setting [4]), 1.36 nM.
Consider `CC[C@@H](Nc1nc2c(Br)cccc2c2nc(-c3ccc(OC)cc3OC(F)(F)F)nn12)C(N)=O` [Example 567, (2R)-2-({7-bromo-2-[4-methoxy-2-(trifluoromethoxy)phenyl][1,2,4]triazolo[1,5-c]quinazolin-5-yl}amino)butanamide], for which the concentration for half-maximal inhibition (IC50) against AHR [1] is 1.21e-08 M; on AHR [2] (read-out: AHR Antagonism Mouse IC50, mouse Hepa 1c1c7 cells, 200 μM kynurenic acid, 20 hours), 3.05 nM.
In the case of `O=C1NCCNC[C@H]1Nc1nc2ccccc2c2nc(-c3cc(F)ccc3OC(F)(F)F)nn12` [Example 719, (6R)-6-({2-[5-fluoro-2-(trifluoromethoxy)phenyl][1,2,4]triazolo[1,5-c]quinazolin-5-yl}amino)-1,4-diazepan-5-one], the IC50 came out at 9.56e-06 M against AHR [1] and 239 nM at AHR [2] (setting [3]).
Take `CCCCNC(=O)[C@H](C)Nc1nc2c(Br)cccc2c2nc(-c3ccc(Cl)cc3OC(F)F)nn12` [Example 686, N^2-{7-bromo-2-[4-chloro-2-(difluoromethoxy)phenyl][1,2,4]triazolo[1,5-c]quinazolin-5-yl}-N-butyl-L-alaninamide]: the concentration for half-maximal inhibition (IC50) was 2.1e-07 M against AHR [1] and 18.5 nM at AHR [2] (setting [3]).
As for `O=C1NCCNC[C@H]1Nc1nc2ccccc2c2nc(-c3ccc(Br)o3)nn12` [Example 412, (6R)-6-{[2-(5-bromofuran-2-yl)[1,2,4]triazolo[1,5-c]quinazolin-5-yl]amino}-1,4-diazepan-5-one], the IC50 amounted to 8.37e-08 M at AHR [1] and 236 nM at AHR [2] (setting [3]).
Turning to `O=C1NCCNC[C@@H]1Nc1nc2c(Br)cccc2c2nc(-c3cnn(C4CC4)c3)nn12` [Example 953, (6S)-6-{[7-bromo-2-(1-cyclopropyl-1H-pyrazol-4-yl)[1,2,4]triazolo[1,5-c]quinazolin-5-yl]amino}-1,4-diazepan-5-one], the 50% inhibitory concentration (IC50) on AHR [1] (firefly luciferase reporter) was 2.14e-08 M; at AHR [2] (setting [5]), 14.9 nM.
On the same counts, the results for `C[C@@H](Nc1nc2c(C(F)(F)F)cccc2c2nc(-c3cnn(C)c3)nn12)C(=O)N1CC2(COC2)C1` [Example 880, (2R)-2-{[2-(1-methyl-1H-pyrazol-4-yl)-7-(trifluoromethyl)[1,2,4]triazolo[1,5-c]quinazolin-5-yl]amino}-1-(2-oxa-6-azaspiro[3.3]heptan-6-yl)propan-1-one] are 5.77e-08 M and 193 nM.
As for `COc1ccc(-c2nc3c4cccc(Br)c4nc(N[C@H](C)C(=O)N4CCO[C@H](C)C4)n3n2)cc1` [Example 907, (2R)-2-{[7-bromo-2-(4-methoxyphenyl)[1,2,4]triazolo[1,5-c]quinazolin-5-yl]amino}-1-[(2R)-2-methylmorpholin-4-yl]propan-1-one], the IC50 is 9.93e-10 M against AHR [1] (firefly luciferase reporter) and 1.39 nM at AHR [2] (setting [4]).
As for `O=C1NCCNC[C@H]1Nc1nc2ccccc2c2nc(-c3ccccc3C(F)(F)F)nn12` [Example 262, (6R)-6-({2-[2-(trifluoromethyl)phenyl][1,2,4]triazolo[1,5-c]quinazolin-5-yl}amino)-1,4-diazepan-5-one], the IC50 was 1.37e-06 M against AHR [1] and 85.7 nM on AHR [2] (setting [3]).
`COCCNC(=O)[C@@H](C)Nc1nc2c(Br)cccc2c2nc(-c3ccc(OC)cc3)nn12` [Example 885, N^2-[7-bromo-2-(4-methoxyphenyl)[1,2,4]triazolo[1,5-c]quinazolin-5-yl]-N-(2-methoxyethyl)-D-alaninamide]: the IC50 against AHR [1] (firefly luciferase reporter) was found to be 1.24e-09 M; on AHR [2] (setting [4]), 2.94 nM.
Regarding `Cn1cc(-c2nc3c4cccc(C(F)(F)F)c4nc(NC4C(=O)NCC4(C)C)n3n2)cn1` (racemic) [Example 728, (+/−)-4,4-dimethyl-3-{[2-(1-methyl-1H-pyrazol-4-yl)-7-(trifluoromethyl)[1,2,4]triazolo[1,5-c]quinazolin-5-yl]amino}pyrrolidin-2-one], the IC50 against AHR [1] is over 2e-05 M; at AHR [2] (setting [3]), 446 nM.
On to `CCS(=O)(=O)c1cccc2c1nc(N[C@@H]1CCCCNC1=O)n1nc(-c3ccc(OC)cc3)nc21` [Example 844, (3R)-3-{[7-(ethanesulfonyl)-2-(4-methoxyphenyl)[1,2,4]triazolo[1,5-c]quinazolin-5-yl]amino}azepan-2-one], for which the 50% inhibitory concentration (IC50) against AHR [1] (firefly luciferase reporter) worked out at 1.76e-09 M; at AHR [2] (setting [4]), 10.9 nM.
Turning to `O=C1NCCCC[C@H]1Nc1nc2ccccc2c2nc(-c3ccccc3OC(F)F)nn12` [Example 470, (3R)-3-({2-[2-(difluoromethoxy)phenyl][1,2,4]triazolo[1,5-c]quinazolin-5-yl}amino)azepan-2-one], the IC50 on AHR [1] was 1.34e-09 M; on AHR [2] (setting [3]) it was 0.5 nM.
Regarding `O=C1NCCCC[C@H]1Nc1nc2ccccc2c2nc(-c3ccsc3)nn12` [Example 340, (3R)-3-{[2-(thiophen-3-yl)[1,2,4]triazolo[1,5-c]quinazolin-5-yl]amino}azepan-2-one], the IC50 amounted to 7.33e-10 M against AHR [1] and 0.517 nM at AHR [2] (setting [3]).
Taken in the same sequence, the figures for `N#Cc1cccc(-c2nc3c4ccccc4nc(N[C@@H]4CCCCNC4=O)n3n2)c1` [Example 381, 3-(5-{[(3R)-2-oxoazepan-3-yl]amino}[1,2,4]triazolo[1,5-c]quinazolin-2-yl)benzonitrile] were 1.02e-08 M and 1.51 nM.
Turning to `CCn1cc(-c2nc3c4cccc(S(C)(=O)=O)c4nc(N[C@@H]4CNCCNC4=O)n3n2)c(C)n1` [Example 945, (6R)-6-{[2-(1-ethyl-3-methyl-1H-pyrazol-4-yl)-7-(methanesulfonyl)[1,2,4]triazolo[1,5-c]quinazolin-5-yl]amino}-1,4-diazepan-5-one], the 50% inhibitory concentration (IC50) was found to be 4.79e-07 M on AHR [1] (firefly luciferase reporter) and 2080 nM at AHR [2] (setting [4]).
On to `O=C1NCC[C@H]1Nc1nc2ccccc2c2nc(-c3ccncc3F)nn12` [Example 483, (3R)-3-{[2-(3-fluoropyridin-4-yl)[1,2,4]triazolo[1,5-c]quinazolin-5-yl]amino}pyrrolidin-2-one], for which the IC50 against AHR [1] was determined as 1.45e-06 M; on AHR [2] (setting [3]) it was 2170 nM.
